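1) Cells in 96-well plates. 2) Compound, 48 h, 5 concentrations. 3) Linear interpolation between surrounding doses. 4) Unreached endpoint = highest concentration. Abbreviation: GI50, concentration required for 50% inhibition of growth. TGI: concentration producing complete growth inhibition.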
Columns and labels:
Experiment in all cases: NCI anticancer screen, dose series, 48 h
[1] = tested on: SK-MEL-2 melanoma
[2] = tested on: SW-620 colon
[3] = tested on: SK-MEL-28 melanoma
[4] = tested on: OVCAR-5 ovarian
[5] = tested on: MDA-MB-231 breast
[6] = tested on: CCRF-CEM leukemia
[7] = tested on: PC-3 prostate
[8] = tested on: COLO 205 colon
[9] = tested on: HOP-92 NSCLC
[10] = tested on: A549 NSCLC
[11] = tested on: SNB-75 CNS
[12] = tested on: SNB-19 CNS
[13] = tested on: SN12C renal
[14] = tested on: NCI-H226 lung
[15] = tested on: NCI-H460 lung
[16] = tested on: TK-10 renal
[17] = tested on: A498 renal
[18] = tested on: EKVX NSCLC
[19] = tested on: MCF7 breast
[20] = tested on: LOX IMVI melanoma
[21] = tested on: SF-295 CNS
[22] = tested on: HCT-116 colon
[23] = tested on: UACC-257 melanoma
[24] = tested on: SK-MEL-5 melanoma
[25] = tested on: M14 melanoma
[26] = tested on: BT-549 breast
[27] = tested on: SR leukemia
[28] = tested on: ACHN renal
[29] = tested on: NCI-H522 lung
[30] = tested on: IGROV1 ovarian
[31] = tested on: HT29 colon
[32] = tested on: NCI/ADR-RES ovarian
[33] = tested on: HCC-2998 colon
[34] = tested on: KM12 colon
[35] = tested on: U251 CNS
[36] = tested on: SK-OV-3 ovarian
[37] = tested on: UO-31 renal
[38] = tested on: DU-145 prostate
[39] = tested on: MALME-3M melanoma
[40] = tested on: RPMI-8226 leukemia
[41] = tested on: MOLT-4 leukemia
[42] = tested on: 786-0 renal
[43] = tested on: K-562 leukemia
[44] = tested on: MDA-MB-435
[45] = tested on: OVCAR-3 ovarian
[46] = tested on: NCI-H23 lung
[47] = tested on: UACC-62 melanoma
[48] = tested on: SF-268 CNS
[49] = tested on: SF-539 CNS
[50] = tested on: HCT-15 colon
[51] = tested on: T-47D breast
[52] = tested on: CAKI-1 renal
[53] = tested on: OVCAR-4 ovarian
[54] = tested on: HOP-62 NSCLC
[55] = tested on: HL-60(TB) leukemia
[56] = tested on: OVCAR-8 ovarian
[57] = tested on: RXF 393 renal
[58] = tested on: HS 578T breast

Structure (SMILES): O=C(Nc1cccc(-c2nc(-c3ccc(NC(=O)c4cccs4)cc3Cl)no2)c1)Nc1ccc(NC(=O)C2CC2)c(C(F)(F)F)c1
- GI50 [1]: 343 nM
- TGI [1]: 1290 nM
- GI50 [2]: 256 nM
- TGI [2]: 660 nM
- GI50 [3]: 209 nM
- TGI [3]: 450 nM
- GI50 [4]: 306 nM
- TGI [4]: 1140 nM
- GI50 [5]: 219 nM
- TGI [5]: 557 nM
- GI50 [6]: 518 nM
- TGI [6]: > 35400 nM
- GI50 [7]: 209 nM
- TGI [7]: 460 nM
- GI50 [8]: 291 nM
- TGI [8]: 903 nM
- GI50 [9]: 180 nM
- TGI [9]: 450 nM
- GI50 [10]: 246 nM
- TGI [10]: 653 nM
- GI50 [11]: 183 nM
- TGI [11]: 1010 nM
- GI50 [12]: 301 nM
- TGI [12]: 1060 nM
- GI50 [13]: 220 nM
- TGI [13]: 576 nM
- GI50 [14]: 227 nM
- TGI [14]: 601 nM
- GI50 [15]: 204 nM
- TGI [15]: 412 nM
- GI50 [16]: 338 nM
- TGI [16]: 1540 nM
- GI50 [17]: 174 nM
- TGI [17]: 742 nM
- GI50 [18]: 295 nM
- TGI [18]: 1200 nM
- GI50 [19]: 220 nM
- TGI [19]: 643 nM
- GI50 [20]: 185 nM
- TGI [20]: 356 nM
- GI50 [21]: 191 nM
- TGI [21]: 370 nM
- GI50 [22]: 321 nM
- TGI [22]: 1690 nM
- GI50 [23]: 836 nM
- TGI [23]: 3230 nM
- GI50 [24]: 478 nM
- TGI [24]: 1870 nM
- GI50 [25]: 324 nM
- TGI [25]: 1270 nM
- GI50 [26]: 414 nM
- TGI [26]: 2430 nM
- GI50 [27]: 254 nM
- TGI [27]: 898 nM
- GI50 [28]: 467 nM
- TGI [28]: 3860 nM
- GI50 [29]: 244 nM
- TGI [29]: 729 nM
- GI50 [30]: 229 nM
- TGI [30]: 574 nM
- GI50 [31]: 347 nM
- TGI [31]: 2110 nM
- GI50 [32]: 3610 nM
- TGI [32]: > 100000 nM
- GI50 [33]: 321 nM
- TGI [33]: 1140 nM
- GI50 [34]: 317 nM
- TGI [34]: 1050 nM
- GI50 [35]: 193 nM
- TGI [35]: 414 nM
- GI50 [36]: 795 nM
- TGI [36]: 2990 nM
- GI50 [37]: 993 nM
- TGI [37]: 3090 nM
- GI50 [38]: 317 nM
- TGI [38]: 1130 nM
- GI50 [39]: 183 nM
- TGI [39]: 376 nM
- GI50 [40]: 396 nM
- TGI [40]: 2140 nM
- GI50 [41]: 359 nM
- TGI [41]: 1790 nM
- GI50 [42]: 283 nM
- TGI [42]: 1010 nM
- GI50 [43]: 296 nM
- TGI [43]: 1670 nM
- GI50 [44]: 230 nM
- TGI [44]: 547 nM
- GI50 [45]: 280 nM
- TGI [45]: 778 nM
- GI50 [46]: 226 nM
- TGI [46]: 571 nM
- GI50 [47]: 205 nM
- TGI [47]: 527 nM
- GI50 [48]: 344 nM
- TGI [48]: 1450 nM
- GI50 [49]: 188 nM
- TGI [49]: 381 nM
- GI50 [50]: 409 nM
- TGI [50]: 1850 nM
- GI50 [51]: 257 nM
- TGI [51]: 972 nM
- GI50 [52]: 244 nM
- TGI [52]: 678 nM
- GI50 [53]: 223 nM
- TGI [53]: 492 nM
- GI50 [54]: 241 nM
- TGI [54]: 624 nM
- GI50 [55]: 2270 nM
- TGI [55]: > 26800 nM
- GI50 [56]: 311 nM
- TGI [56]: 1330 nM
- GI50 [57]: 214 nM
- TGI [57]: 494 nM
- GI50 [58]: 230 nM
- TGI [58]: 678 nM
